# Test results from US20090018111A1, “Novel Antimicrobial Medicament” (priority 2004, published 2009).
# Like-named read-outs stand apart in the source and are kept apart here.
# How the values were obtained:
# M. luteus ATCC9341 = assay: Sensitivity test (agar dilution); assay type: cell-based, Micrococcus luteus; details: Micrococcus luteus
# How it was run: (§1)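 FIC index is computed from MICs of each drug alone versus in combination (≤1 = enhancement, >1 = none). MICs are measured on Mueller Hinton agar plates carrying twofold dilution series and inoculated with about 10^6 CFU/ml bacterial suspension.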
# E. faecalis ATCC19433 = assay: Sensitivity test (agar dilution); assay type: cell-based, Enterococcus faecalis; details: Enterococcus faecalis, read-out: MIC
# How it was run: as §1
# B. subtilis ATCC6633 = assay: Sensitivity test (agar dilution); assay type: cell-based, Bacillus subtilis; details: Bacillus subtilis, read-out: MIC
# How it was run: as §1
# E. coli ML1410 = assay: Sensitivity test (agar dilution); assay type: cell-based, Escherichia coli; details: Escherichia coli, read-out: MIC
# How it was run: as §1
# E. coli NIHJ JC-2 = assay: Sensitivity test (agar dilution); assay type: cell-based, Escherichia coli; details: Escherichia coli, read-out: MIC
# How it was run: as §1
# E. coli ML1410 RP4 = assay: microbe, parasite or virus in culture; assay type: cell-based, Escherichia coli; details: Escherichia coli
# How it was run: as §1
# K. pneumoniae ATCC10031 = assay: Sensitivity test (agar dilution); assay type: cell-based, Klebsiella pneumoniae; details: Klebsiella pneumoniae, read-out: MIC
# How it was run: as §1
# P. mirabiris GN2425 = assay: Sensitivity test (agar dilution); assay type: cell-based, Proteus mirabilis; details: Proteus mirabilis, read-out: MIC
# How it was run: as §1
# S. marcescens GN6473 = assay: Sensitivity test (agar dilution); assay type: cell-based, Serratia marcescens; details: Serratia marcescens, read-out: MIC
# How it was run: as §1
# S. marcescens X 100 = assay: Sensitivity test (agar dilution); assay type: cell-based, Serratia marcescens; details: Serratia marcescens, read-out: MIC
# How it was run: as §1
# E. aerogenes ATCC13048 = assay: Sensitivity test (agar dilution); assay type: cell-based, Enterobacter aerogenes; details: Klebsiella aerogenes, read-out: MIC
# How it was run: as §1
# P. aeruginosa IFO3451 = assay: Sensitivity test (agar dilution); assay type: cell-based, Pseudomonas aeruginosa; details: Pseudomonas aeruginosa, read-out: MIC
# How it was run: as §1
# P. aeruginosa TL-2667 = assay: Sensitivity test (agar dilution); assay type: cell-based, Pseudomonas aeruginosa; details: Pseudomonas aeruginosa, read-out: MIC
# How it was run: as §1
smiles,measurement,setting,value
"C[C@@H](O)[C@H]1C(=O)N2C(C(=O)O)=C(S[C@@H]3CN[C@H](C(=O)N(C)C)C3)[C@H](C)[C@H]12 [MEPM, meropenem]",MIC,M. luteus ATCC9341; ATCC9341,0.125 µg/mL
same,MIC,"M. luteus ATCC9341; ATCC9341, Concomitant (MEPM:SM = 1:1), read-out: MIC",≤ 0.016 µg/mL
same,MIC,"M. luteus ATCC9341; ATCC9341, Concomitant (MEPM:SM = 1:2), read-out: MIC",≤ 0.016 µg/mL
same,MIC,"M. luteus ATCC9341; ATCC9341, Concomitant (MEPM:SM = 1:4), read-out: MIC",≤ 0.016 µg/mL
same,MIC,"M. luteus ATCC9341; ATCC9341, Concomitant drug (MEPM:SM = 2:1), read-out: MIC",≤ 0.016 µg/mL
same,MIC,"E. faecalis ATCC19433; ATCC19433, Concomitant (MEPM:SM = 1:1)",1 µg/mL
same,MIC,"E. faecalis ATCC19433; ATCC19433, Concomitant (MEPM:SM = 1:2)",0.5 µg/mL
same,MIC,"E. faecalis ATCC19433; ATCC19433, Concomitant (MEPM:SM = 1:4)",0.25 µg/mL
same,MIC,"E. faecalis ATCC19433; ATCC19433, Concomitant drug (MEPM:SM = 2:1)",1 µg/mL
same,MIC,"E. faecalis ATCC19433; ATCC19433, alone",4 µg/mL
same,MIC,"B. subtilis ATCC6633; ATCC6633, Concomitant (MEPM:SM = 1:1)",≤ 0.016 µg/mL
same,MIC,"B. subtilis ATCC6633; ATCC6633, Concomitant (MEPM:SM = 1:2)",≤ 0.016 µg/mL
same,MIC,"B. subtilis ATCC6633; ATCC6633, Concomitant (MEPM:SM = 1:4)",≤ 0.016 µg/mL
same,MIC,"B. subtilis ATCC6633; ATCC6633, Concomitant drug (MEPM:SM = 2:1)",≤ 0.016 µg/mL
same,MIC,"B. subtilis ATCC6633; ATCC6633, alone",0.063 µg/mL
same,MIC,"E. coli ML1410; ML1410, Concomitant (MEPM:SM = 1:1)",≤ 0.016 µg/mL
same,MIC,"E. coli ML1410; ML1410, Concomitant (MEPM:SM = 1:2)",≤ 0.016 µg/mL
same,MIC,"E. coli ML1410; ML1410, Concomitant (MEPM:SM = 1:4)",≤ 0.016 µg/mL
same,MIC,"E. coli ML1410; ML1410, Concomitant drug (MEPM:SM = 2:1)",≤ 0.016 µg/mL
same,MIC,"E. coli ML1410; ML1410, alone",0.031 µg/mL
same,MIC,"E. coli NIHJ JC-2; NIHJJC2, Concomitant (MEPM:SM = 1:1)",≤ 0.016 µg/mL
same,MIC,"E. coli NIHJ JC-2; NIHJJC2, Concomitant (MEPM:SM = 1:2)",≤ 0.016 µg/mL
same,MIC,"E. coli NIHJ JC-2; NIHJJC2, Concomitant (MEPM:SM = 1:4)",≤ 0.016 µg/mL
same,MIC,"E. coli NIHJ JC-2; NIHJJC2, Concomitant drug (MEPM:SM = 2:1)",≤ 0.016 µg/mL
same,MIC,"E. coli NIHJ JC-2; NIHJJC2, alone",≤ 0.016 µg/mL
same,MIC,"E. coli ML1410 RP4; ML1410RP4, Concomitant (MEPM:SM = 1:1)",≤ 0.016 µg/mL
same,MIC,"E. coli ML1410 RP4; ML1410RP4, Concomitant (MEPM:SM = 1:2)",≤ 0.016 µg/mL
same,MIC,"E. coli ML1410 RP4; ML1410RP4, Concomitant (MEPM:SM = 1:4)",≤ 0.016 µg/mL
same,MIC,"E. coli ML1410 RP4; ML1410RP4, Concomitant drug (MEPM:SM = 2:1)",≤ 0.016 µg/mL
same,MIC,"E. coli ML1410 RP4; ML1410RP4, alone",0.031 µg/mL
same,MIC,"K. pneumoniae ATCC10031; ATCC10031, Concomitant (MEPM:SM = 1:1)",≤ 0.016 µg/mL
same,MIC,"K. pneumoniae ATCC10031; ATCC10031, Concomitant (MEPM:SM = 1:2)",≤ 0.016 µg/mL
same,MIC,"K. pneumoniae ATCC10031; ATCC10031, Concomitant (MEPM:SM = 1:4)",≤ 0.016 µg/mL
same,MIC,"K. pneumoniae ATCC10031; ATCC10031, Concomitant drug (MEPM:SM = 2:1)",≤ 0.016 µg/mL
same,MIC,"K. pneumoniae ATCC10031; ATCC10031, alone",≤ 0.016 µg/mL
same,MIC,"P. mirabiris GN2425; GN2425, Concomitant (MEPM:SM = 1:1)",≤ 0.016 µg/mL
same,MIC,"P. mirabiris GN2425; GN2425, Concomitant (MEPM:SM = 1:2)",0.031 µg/mL
same,MIC,"P. mirabiris GN2425; GN2425, Concomitant (MEPM:SM = 1:4)",≤ 0.016 µg/mL
same,MIC,"P. mirabiris GN2425; GN2425, Concomitant drug (MEPM:SM = 2:1)",0.031 µg/mL
same,MIC,"P. mirabiris GN2425; GN2425, alone",0.063 µg/mL
same,MIC,"S. marcescens GN6473; GN6473, Concomitant (MEPM:SM = 1:1)",0.031 µg/mL
same,MIC,"S. marcescens GN6473; GN6473, Concomitant (MEPM:SM = 1:2)",0.031 µg/mL
same,MIC,"S. marcescens GN6473; GN6473, Concomitant (MEPM:SM = 1:4)",0.031 µg/mL
same,MIC,"S. marcescens GN6473; GN6473, Concomitant drug (MEPM:SM = 2:1)",0.031 µg/mL
same,MIC,"S. marcescens GN6473; GN6473, alone",0.063 µg/mL
same,MIC,"S. marcescens X 100; X100, Concomitant (MEPM:SM = 1:1)",≤ 0.016 µg/mL
same,MIC,"S. marcescens X 100; X100, Concomitant (MEPM:SM = 1:2)",≤ 0.016 µg/mL
same,MIC,"S. marcescens X 100; X100, Concomitant (MEPM:SM = 1:4)",≤ 0.016 µg/mL
same,MIC,"S. marcescens X 100; X100, Concomitant drug (MEPM:SM = 2:1)",0.031 µg/mL
same,MIC,"S. marcescens X 100; X100, alone",0.031 µg/mL
same,MIC,"E. aerogenes ATCC13048; ATCC13048, Concomitant (MEPM:SM = 1:1)",≤ 0.016 µg/mL
same,MIC,"E. aerogenes ATCC13048; ATCC13048, Concomitant (MEPM:SM = 1:2)",0.031 µg/mL
same,MIC,"E. aerogenes ATCC13048; ATCC13048, Concomitant (MEPM:SM = 1:4)",0.031 µg/mL
same,MIC,"E. aerogenes ATCC13048; ATCC13048, Concomitant drug (MEPM:SM = 2:1)",0.031 µg/mL
same,MIC,"E. aerogenes ATCC13048; ATCC13048, alone",0.063 µg/mL
same,MIC,"P. aeruginosa IFO3451; IFO3451, Concomitant (MEPM:SM = 1:1)",0.5 µg/mL
same,MIC,"P. aeruginosa IFO3451; IFO3451, Concomitant (MEPM:SM = 1:2)",0.5 µg/mL
same,MIC,"P. aeruginosa IFO3451; IFO3451, Concomitant (MEPM:SM = 1:4)",0.5 µg/mL
same,MIC,"P. aeruginosa IFO3451; IFO3451, Concomitant drug (MEPM:SM = 2:1)",0.5 µg/mL
same,MIC,"P. aeruginosa IFO3451; IFO3451, alone",0.5 µg/mL
same,MIC,"P. aeruginosa TL-2667; TL2667, Concomitant (MEPM:SM = 1:1)",4 µg/mL
same,MIC,"P. aeruginosa TL-2667; TL2667, Concomitant (MEPM:SM = 1:2)",2 µg/mL
same,MIC,"P. aeruginosa TL-2667; TL2667, Concomitant (MEPM:SM = 1:4)",2 µg/mL
same,MIC,"P. aeruginosa TL-2667; TL2667, Concomitant drug (MEPM:SM = 2:1)",4 µg/mL
same,MIC,"P. aeruginosa TL-2667; TL2667, alone",4 µg/mL
